Measurements reported in US20260130395A1, “Water Dispersible Botanical Compositions” (Aquila Black Limited, priority 2021, published 2026).

Test: Stability of cannabinoid compounds and Vitamin E components in Beverage 1 (AB White) by LCMSMS
Format: physicochemical
Conditions: for Stability of Plant-Derived Cannabinoid Compounds in AB White, 8° C.: AB White stored at 8° C.; for Stability of Plant-Derived Cannabinoid Compounds in AB White, 21-25° C.: AB White stored at 21-25° C.
Procedure: The stability of the plant-derived cannabinoid compounds and Vitamin E components of the beverage stored 8° C. and at room temperature (21-25° C.) were monitored, over a period of 570 days via Liquid Chromatography-tandem Mass Spectrometry [LCMSMS, Agilent 6590, C18, 3×50 mm, 2.7 m (Agilent InfinityLab Poroshell 120 EC-C18), Electrospray Ionization detector]. The LCMSMS was calibrated for 0-1000 ng/ml cannabinoids with the same resin material used in the preparation of the concentrates. At each time period, 100 ml of beverage was diluted with 10 ml of methanol and injected into the LCMSMS for analysis.

Question: Which “Stability of Plant-Derived Cannabinoid Compounds in AB White, 8° C.” value (“Stability … 8° C.” below) (0 days) does the source give for `CCCCCc1cc(O)c2c(c1)OC(C)(CCC=C(C)C)C=C2` (centres unmarked) [CBC, cannabichromene] here?
Answer: 0.320 µg/mL

Question: What about the “Stability … 8° C.” value (1 days) of the same compound?
Answer: 0.314 µg/mL

Question: What about the “Stability … 8° C.” value (2 days) of the same compound?
Answer: 0.315 µg/mL

Question: And the “Stability … 8° C.” value (3 days)?
Answer: 0.322 µg/mL

Question: What about the “Stability … 8° C.” value (5 days) of the same compound?
Answer: 0.322 µg/mL

Question: What about the “Stability … 8° C.” value (8 days) of the same compound?
Answer: 0.318 µg/mL

Question: What about the “Stability … 8° C.” value (9 days) of the same compound?
Answer: 0.319 µg/mL

Question: And the “Stability … 8° C.” value (10 days)?
Answer: 0.314 µg/mL

Question: What about the “Stability … 8° C.” value (11 days) of the same compound?
Answer: 0.314 µg/mL

Question: What about the “Stability … 8° C.” value (12 days) of the same compound?
Answer: 0.319 µg/mL

Question: And the “Stability … 8° C.” value (15 days)?
Answer: 0.317 µg/mL

Question: What about the “Stability … 8° C.” value (16 days) of the same compound?
Answer: 0.320 µg/mL

Question: What about the “Stability … 8° C.” value (17 days) of the same compound?
Answer: 0.315 µg/mL

Question: What about the “Stability … 8° C.” value (18 days) of the same compound?
Answer: 0.312 µg/mL

Question: What about the “Stability … 8° C.” value (19 days) of the same compound?
Answer: 0.317 µg/mL

Question: What about the “Stability … 8° C.” value (22 days) of the same compound?
Answer: 0.315 µg/mL

Question: And the “Stability … 8° C.” value (23 days)?
Answer: 0.321 µg/mL

Question: What about the “Stability … 8° C.” value (24 days) of the same compound?
Answer: 0.316 µg/mL

Question: What about the “Stability … 8° C.” value (25 days) of the same compound?
Answer: 0.310 µg/mL

Question: What about the “Stability … 8° C.” value (26 days) of the same compound?
Answer: 0.316 µg/mL

Question: And the “Stability … 8° C.” value (29 days)?
Answer: 0.321 µg/mL

Question: And the “Stability … 8° C.” value (30 days)?
Answer: 0.31 µg/mL

Question: What about the “Stability … 8° C.” value (60 days) of the same compound?
Answer: 0.316 µg/mL

Question: And the “Stability … 8° C.” value (90 days)?
Answer: 0.318 µg/mL

Question: What about the “Stability … 8° C.” value (120 days) of the same compound?
Answer: 0.311 µg/mL

Question: And the “Stability … 8° C.” value (150 days)?
Answer: 0.314 µg/mL

Question: What about the “Stability … 8° C.” value (180 days) of the same compound?
Answer: 0.319 µg/mL

Question: What about the “Stability … 8° C.” value (210 days) of the same compound?
Answer: 0.309 µg/mL

Question: And the “Stability … 8° C.” value (240 days)?
Answer: 0.316 µg/mL

Question: And the “Stability … 8° C.” value (270 days)?
Answer: 0.316 µg/mL

Question: What about the “Stability … 8° C.” value (300 days) of the same compound?
Answer: 0.313 µg/mL

Question: What about the “Stability … 8° C.” value (330 days) of the same compound?
Answer: 0.316 µg/mL

Question: What about the “Stability … 8° C.” value (360 days) of the same compound?
Answer: 0.306 µg/mL

Question: And the “Stability … 8° C.” value (390 days)?
Answer: 0.310 µg/mL

Question: What about the “Stability … 8° C.” value (420 days) of the same compound?
Answer: 0.307 µg/mL

Question: And the “Stability … 8° C.” value (450 days)?
Answer: 0.312 µg/mL

Question: What about the “Stability … 8° C.” value (480 days) of the same compound?
Answer: 0.305 µg/mL

Question: What about the “Stability … 8° C.” value (510 days) of the same compound?
Answer: 0.295 µg/mL

Question: And the “Stability … 8° C.” value (540 days)?
Answer: 0.299 µg/mL

Question: What about the “Stability … 8° C.” value (570 days) of the same compound?
Answer: 0.293 µg/mL

Question: What about the “Stability of Plant-Derived Cannabinoid Compounds in AB White, 21-25° C.” value (from here on “Stability … 21-25° C.”) (0 days) of the same compound?
Answer: 0.320 µg/mL

Question: And the “Stability … 21-25° C.” value (1 days)?
Answer: 0.313 µg/mL

Question: And the “Stability … 21-25° C.” value (2 days)?
Answer: 0.318 µg/mL

Question: What about the “Stability … 21-25° C.” value (3 days) of the same compound?
Answer: 0.311 µg/mL

Question: What about the “Stability … 21-25° C.” value (5 days) of the same compound?
Answer: 0.323 µg/mL

Question: And the “Stability … 21-25° C.” value (8 days)?
Answer: 0.319 µg/mL

Question: What about the “Stability … 21-25° C.” value (9 days) of the same compound?
Answer: 0.307 µg/mL

Question: What about the “Stability … 21-25° C.” value (10 days) of the same compound?
Answer: 0.312 µg/mL

Question: And the “Stability … 21-25° C.” value (11 days)?
Answer: 0.311 µg/mL

Question: And the “Stability … 21-25° C.” value (12 days)?
Answer: 0.316 µg/mL

Question: And the “Stability … 21-25° C.” value (15 days)?
Answer: 0.311 µg/mL

Question: And the “Stability … 21-25° C.” value (16 days)?
Answer: 0.321 µg/mL

Question: And the “Stability … 21-25° C.” value (17 days)?
Answer: 0.323 µg/mL

Question: What about the “Stability … 21-25° C.” value (18 days) of the same compound?
Answer: 0.313 µg/mL

Question: What about the “Stability … 21-25° C.” value (19 days) of the same compound?
Answer: 0.316 µg/mL

Question: And the “Stability … 21-25° C.” value (22 days)?
Answer: 0.322 µg/mL

Question: And the “Stability … 21-25° C.” value (23 days)?
Answer: 0.316 µg/mL

Question: What about the “Stability … 21-25° C.” value (24 days) of the same compound?
Answer: 0.308 µg/mL

Question: And the “Stability … 21-25° C.” value (25 days)?
Answer: 0.310 µg/mL

Question: And the “Stability … 21-25° C.” value (26 days)?
Answer: 0.308 µg/mL

Question: And the “Stability … 21-25° C.” value (29 days)?
Answer: 0.317 µg/mL

Question: And the “Stability … 21-25° C.” value (30 days)?
Answer: 0.317 µg/mL

Question: What about the “Stability … 21-25° C.” value (60 days) of the same compound?
Answer: 0.306 µg/mL

Question: What about the “Stability … 21-25° C.” value (90 days) of the same compound?
Answer: 0.305 µg/mL

Question: What about the “Stability … 21-25° C.” value (120 days) of the same compound?
Answer: 0.318 µg/mL

Question: What about the “Stability … 21-25° C.” value (150 days) of the same compound?
Answer: 0.312 µg/mL

Question: What about the “Stability … 21-25° C.” value (180 days) of the same compound?
Answer: 0.315 µg/mL

Question: And the “Stability … 21-25° C.” value (210 days)?
Answer: 0.307 µg/mL

Question: And the “Stability … 21-25° C.” value (240 days)?
Answer: 0.304 µg/mL

Question: What about the “Stability … 21-25° C.” value (270 days) of the same compound?
Answer: 0.316 µg/mL

Question: And the “Stability … 21-25° C.” value (300 days)?
Answer: 0.312 µg/mL

Question: What about the “Stability … 21-25° C.” value (330 days) of the same compound?
Answer: 0.312 µg/mL

Question: What about the “Stability … 21-25° C.” value (360 days) of the same compound?
Answer: 0.310 µg/mL

Question: And the “Stability … 21-25° C.” value (390 days)?
Answer: 0.303 µg/mL

Question: What about the “Stability … 21-25° C.” value (420 days) of the same compound?
Answer: 0.312 µg/mL

Question: What about the “Stability … 21-25° C.” value (450 days) of the same compound?
Answer: 0.310 µg/mL

Question: What about the “Stability … 21-25° C.” value (480 days) of the same compound?
Answer: 0.294 µg/mL

Question: And the “Stability … 21-25° C.” value (510 days)?
Answer: 0.293 µg/mL

Question: What about the “Stability … 21-25° C.” value (540 days) of the same compound?
Answer: 0.294 µg/mL

Question: And the “Stability … 21-25° C.” value (570 days)?
Answer: 0.295 µg/mL
